From ChEMBL document CHEMBL4184095, “Identification of novel small-molecule inhibitors of Zika virus infection” (Bioorg Med Chem Lett, 2018)
pIC50: −log10 of the molar value.

Legend:
[1] = Cytotoxicity against human A549 cells assessed as cell viability at 10 uM by MTT assay relative to control; assay type: cell-based; conditions: read-out: Activity
[2] = Cytotoxicity against human A549 cells assessed as cell viability at 0.1 uM by MTT assay relative to control; assay type: cell-based; conditions: read-out: Activity
[3] = Cytotoxicity against human A549 cells assessed as cell viability at 1 uM by MTT assay relative to control; assay type: cell-based; conditions: read-out: Activity
[4] = Cytotoxicity against human A549 cells assessed as cell viability at 100 uM by MTT assay relative to control; assay type: cell-based; conditions: read-out: Activity
[5] = tested on: Zika virus; test: Antiviral activity against Zika virus infected in human A549 cells preincubated for 5 hrs followed by compound wash measured after 48 hrs by viral plague-forming assay; assay type: functional, organism-based
[6] = tested on: Zika virus; test: Antiviral activity against Zika virus infected in human A549 cells assessed as virus titer preincubated for 5 hrs followed by compound wash measured after 48 hrs by viral plague-forming assay; assay type: functional

| SMILES | viability at 10 µM [1] [%] | viability at 0.1 µM [2] [%] | viability at 1 µM [3] [%] | viability at 100 µM [4] [%] | pIC50 [5] | Activity [6] [log10PFU/ml] |
| --- | --- | --- | --- | --- | --- | --- |
| COc1ccc(CCCn2ncc3c2nc(N)n2nc(-c4ccco4)nc32)cc1 | 77.2 | 94.7 | 106 | 41.6 | 5.51 |  |
| C=CCSc1nsc(NC(=O)Nc2cccc(C(C)=O)c2)n1 | 96.7 | 104 | 105 | 21.6 | 6.80 | 7 |
| O=C(Nc1nc(SCCOc2ccccc2)ns1)Nc1ccc(F)cc1F | 95.5 | 96.2 | 102 | 27.3 | 5.31 |  |
| O[C@H]1CC[C@H](Nc2nc(-c3ccccc3)nc3[nH]ccc23)CC1 | 98.5 | 106 | 111 | 41.7 | 7.23 |  |
| C#CCSc1nsc(NC(=O)Nc2ccccc2Cl)n1 | 89.9 | 98.1 | 96.2 | 21.4 | 5.78 |  |
| C=CCSc1nsc(NC(=O)Nc2ccc(Cl)cc2)n1 | 51.2 | 100 | 98.1 | 15.1 | 9.72 |  |
| COc1ccc(C2CNC(=O)NC2)cc1O[C@@H]1C[C@H]2CC[C@H]1C2 | 94.3 | 96.6 | 104 | 43.3 | 6.74 |  |
| C=CCSc1nsc(NC(=O)Nc2ccc(F)cc2F)n1 | 90.2 | 100 | 100 | 31.3 | 5.35 |  |
| C#CCSc1nsc(NC(=O)Nc2ccc(Cl)c(C(F)(F)F)c2)n1 | 74.1 | 99.8 | 97.8 | 18 | 7.57 |  |
| C=CCSc1nsc(NC(=O)Nc2ccc(Cl)cc2C(F)(F)F)n1 | 95.8 | 102 | 104 | 43.1 | 9.50 |  |
| O=S(=O)(c1c(F)c(F)c(F)c(F)c1F)N1CCN(c2ccccc2)CC1 | 77 | 93.1 | 103 | 35 | 9.06 | 7 |
| CCCn1c(=O)[nH]c2nc(-c3ccc(S(=O)(=O)N4CCN(c5ccc(Cl)cc5)CC4)cc3)[nH]c2c1=O | 86.5 | 97.7 | 97.4 | 35.8 | 7.36 |  |
| COc1ccc([C@@H]2CNC(=O)C2)cc1OC1CCCC1 [(-)-ROLIPRAM] | 92.5 | 95.7 | 97.1 | 39.1 | 7.11 |  |
| CCCOc1cc([C@]2(C)CNC(=O)O2)ccc1OC [DAXALIPRAM] | 95.3 | 101 | 106 | 41.8 | 6.11 |  |
| CN1CCCC1=O [METHYLPYRROLIDONE] | 99.4 | 98.6 | 102 | 39.3 |  |  |
| COCCOc1ccc(N2CCN(CCn3ncc4c3nc(N)n3nc(-c5ccco5)nc43)CC2)cc1 [PRELADENANT] | 57 | 109 | 104 | 27.9 | 6.87 | 7 |
| COc1ccc(C2CNC(=O)C2)cc1OC1CCCC1 (stereo not drawn) [ROLIPRAM] | 101 | 107 | 114 | 43.4 | 7.35 | 7 |
| COc1ccc([C@H]2CNC(=O)C2)cc1OC1CCCC1 [S-ROLIPRAM] | 97 | 96.5 | 105 | 40.9 | 7.59 |  |
| Nc1nc(NCCc2ccc(O)cc2)nc2nc(-c3ccco3)nn12 [ZM-241385] | 77.8 | 107 | 110 | 32.6 | 5.97 |  |
